{"source": "patent US9771562B2", "about": "“Method for culture of human and mouse prostate organoids and uses thereof” (THE TRUSTEES OF COLUMBIA UNIVERSITY IN THE CITY OF NEW YORK, priority 2012, dated 2017)", "key": {"[1]": {"tested_on": "organoids from Nkx3.1^CreERT2/+; Pten^flox/flox; R26R-YFP/+ (NP) mice", "assay": "Drug treatment of NP tumor organoids: efficiency of organoid formation", "assay_type": "cell-based, mouse", "conditions": "1 nM MK-8669; for Frequency (efficiency of organoid formation), Average: average of 3 wells; for Frequency (efficiency of organoid formation), Average / Total organoids counted / Frequency (efficiency of organoid formation): 1000 cells/well, 100 nM DHT control, or without DHT: 10 μM enzalutamide; for Total organoids counted / Frequency (efficiency of organoid formation): single wells, counted after 8 days; for Frequency (efficiency of organoid formation): third passage, embedded in Matrigel; for effect on organoid formation: treatment cultures without DHT, 10 μM enzalutamide", "description": "Next it was determined whether tumor organoids could be utilized to assess drug response, using organoids from Nkx3.1^CreERT2/+; Pten^flox/flox; R26R-YFP/+ (NP) mice, which were previously used to analyze therapeutic response in vivo [48]. […] To assess therapeutic response, YFP-positive prostate cells were isolated from tamoxifen-induced NP mice for organoid culture, and subsequently dissociated organoids at the third passage to single cell suspensions, followed by plating at 1,000 cells/well embedded within Matrigel/culture medium. Control cultures were established in the presence of DHT, while treatment cultures were established without DHT.\nFor serial passaging experiments, organoids were passaged at a 1:4 dilution every 1-2 weeks with 0.25% trypsin for 5 minutes at 37° C., followed by mechanical dissociation to nearly single-cell suspensions. Organoids were frozen in complete media with 50% FBS and 10% DMSO. The efficiency of organoid formation was calculated by averaging the number of organoids visible in each well after 7 days of growth using a 10× objective. For statistical analyses, efficiency percentages were arcsin converted to perform unpaired two-tailed Student's t-tests.\nThe embedding method was used to culture organoids for drug treatment experiments. […] 40 μl of the resulting cell suspension containing 500-3,000 dissociated cells were mixed with 60 μl of Matrigel, and the mixture pipetted around the rim of wells in a 24 well plate. The mixture was allowed to solidify for 30 minutes at 37° C., prior to addition of 400 μl organoid culture medium to each well, with or without supplementation with 100 nm DHT in the presence or absence of drugs. The culture medium was changed every other day, and organoids were counted after 8 days. Drugs were dissolved in DMSO to generate a final concentration of 0.1% in all drug-treated groups. Drug concentrations were as follows: 100 nM DHT, no additions, 0.1% DMSO, 10 μM enzalutamide (provided by Charles Sawyers, Memorial Sloan-Kettering Cancer Center), 1 nM MK-8669 (provided by Cory Abate-Shen, Columbia University Medical Center)."}, "AR [2]": {"tested_on": "AR", "conditions": "NPK-CARN organoids", "quoted_text": "In particular, Nkx3.1^CreERT2/+; Pten^flox/flox; Kras^LSL-G12D/+; R26R-YFP/+ mice (termed NPK) were castrated and induced with tamoxifen, so that combined Pten deletion, Kras^G12D activation, and YFP expression occurred specifically in CARNs (FIG. 33A). Transformed lineage-marked CARNs were isolated by flow cytometry on the basis of their YFP expression, and used for organoid culture.\nFor immunostaining, sections underwent antigen-retrieval by boiling in citrate acid-based antigen unmasking solution (Vector Labs) for 10 min. Primary antibodies were applied to sections and incubated at 4° C. overnight in a humidified chamber. Alexa Fluors (Life Technologies) were used for secondary antibodies. Tyramide amplification (Life Technologies) or ABC Elite (Vector Labs) kits were used for signal detection."}, "AR-regulated genes": {"tested_on": "AR-regulated genes", "conditions": "after DHT withdrawal, passage 1", "description": "(§1) To examine the effects of androgen-deprivation, organoids established from normal prostate epithelium were cultured and passaged in the presence or absence of DHT. […] To assess the molecular response to androgen-deprivation, quantitative RT-PCR (qPCR) analysis of the expression of several known AR-regulated genes was performed at passage 1.\nFor RNA extraction, 4-6 wells of organoids were pooled, pelleted, and dissolved in Trizol reagent prior to processing by the MagMAX 96 Total RNA Isolation Kit (Ambion, Life Technologies). 300-500 ng of RNA was used for cDNA synthesis using the Superscript First Strand Synthesis System (Invitrogen). Quantitative real-time PCR was carried out using SYBR green master mix reagent (QIAGEN) in the Realplex2 instrument (Eppendorf). cDNA samples were diluted 1:5 to 1:10 for all analyses, which were performed in triplicate. Expression values were obtained using the ΔΔCT method and normalized to GAPDH expression; average values are shown as the mean±standard deviation (SD)."}, "AR [3]": {"tested_on": "AR", "description": "as §1"}, "[4]": {"tested_on": "organoids established from normal prostate epithelium", "conditions": "absence of DHT versus presence of DHT, after passaging", "description": "as §1"}}, "note": "Several values for one entry are separate records, joined by “and”; a condition that tells them apart may be missing. Equal values may be shown once. Read-outs that look alike come from different tables or passages of the source."}
{"compound": "CNC(=O)c1ccc(N2C(=S)N(c3ccc(C#N)c(C(F)(F)F)c3)C(=O)C2(C)C)cc1F", "note": "[Enzalutamide, enzalutamide]", "values": [{"measurement": "Frequency (efficiency of organoid formation), Average", "setting": "[1]", "result": 14.9, "unit": "%"}, {"measurement": "Total organoids counted", "setting": "[1]", "result": "134 and 163 and 150"}, {"measurement": "Frequency (efficiency of organoid formation)", "setting": "[1]", "result": "13.4% and 16.3% and 15.0%"}, {"measurement": "effect on organoid formation", "setting": "[1]", "result": "minimal effects"}]}
{"compound": "CO[C@H]1C[C@@H]2CC[C@@H](C)[C@@](O)(O2)C(=O)C(=O)N2CCCC[C@H]2C(=O)O[C@H]([C@H](C)C[C@@H]2CC[C@@H](OP(C)(C)=O)[C@H](OC)C2)CC(=O)[C@H](C)/C=C(\\C)[C@@H](O)[C@@H](OC)C(=O)[C@H](C)C[C@H](C)/C=C/C=C/C=C/1C", "note": "[MK-8669, ridaforolimus]", "values": [{"measurement": "Frequency (efficiency of organoid formation), Average", "setting": "[1]", "result": 15.9, "unit": "%"}, {"measurement": "Total organoids counted", "setting": "[1]", "result": "179 and 154 and 145"}, {"measurement": "Frequency (efficiency of organoid formation)", "setting": "[1]", "result": "17.9% and 15.4% and 14.5%"}, {"measurement": "effect on organoid formation", "setting": "[1]", "result": "minimal effects"}]}
{"compound": "C[C@]12CCC(=O)C[C@@H]1CC[C@@H]1[C@@H]2CC[C@]2(C)[C@@H](O)CC[C@@H]12", "note": "[DHT, dihydrotestosterone]", "values": [{"measurement": "Frequency (efficiency of organoid formation), Average", "setting": "[1]", "result": 17.4, "unit": "%"}, {"measurement": "Total organoids counted", "setting": "[1]", "result": "166 and 194 and 162"}, {"measurement": "Frequency (efficiency of organoid formation)", "setting": "[1]", "result": "16.6% and 19.4% and 16.2%"}, {"measurement": "AR localisation", "setting": "AR [2]; in the absence of DHT", "result": "mostly cytoplasmic AR"}, {"measurement": "AR localisation", "setting": "AR [2]; in the presence of DHT", "result": "nuclear AR"}, {"measurement": "expression of Fkbp5, Mme, and Psca", "setting": "AR-regulated genes", "result": "down-regulated"}, {"measurement": "expression of Igfbp3", "setting": "AR-regulated genes", "result": "up-regulated"}, {"measurement": "AR immunostaining", "setting": "AR [3]; in the absence of DHT", "result": "weaker and mostly cytoplasmic"}, {"measurement": "AR immunostaining", "setting": "AR [3]; in the presence of DHT", "result": "nuclear"}, {"measurement": "organoid size", "setting": "[4]", "result": "reduced in size"}]}
